From patent publication EP4796540A2, “N-SULFONAMIDE NITROGEN-CONTAINING FUSED HETEROCYCLIC COMPOUND, AND APPLICATION THEREOF” (priority 2023, dated 2025)

System: p53 Y220C mutant
Assay: HTRF assay: compounds promoting the binding of p53 Y220C mutant with DNA
Assay type: biochemical
Settings: His-tagged p53 Y220C (94-312), biotin-labeled DNA
Experimental: Homogeneous time-resolved fluorescence (HTRF) assay was used to measure the reactivation effect of compounds on the p53 Y220C mutant. The recombinant His-tagged p53 Y220C (94-312) used for HTRF assays was expressed in E. coli and purified to the purity of 90% through Ni-NTA column. The biotin-labeled DNA used for HTRF assays was synthesized by Pharmaron Inc, with the specific sequence of 5'-[…]-3' .
The binding of recombinant His-tagged p53 Y220C protein and biotin-labeled DNA was measured using fluorescence resonance energy transfer (FRET). For FRET assays, binding between p53 mutants and DNA sequences was measured by detecting the fluorescence of the interaction between an anti-His antibody (Cisbio, 61HI2KLA) conjugated to Eu and d2-conjugated streptavidin (Cisbio, 610SADLF) bound to a biotin-labeled DNA molecule. Compounds were prepared into 2 mM stock solutions and serially diluted into 10 concentrations at a 1:3 ratio in DMSO. Each 200-fold working concentration compound was sequentially diluted to 4-fold working concentration. 4 µL of compound solution was transferred line by line to a 384-well assay plate using Echo, containing 2 replicates per column. 4 µL of p53 solution was added to the assay plate. 4 µL of biotin DNA solution was added to the assay plate, and then 4 µL of assay solution (His-Eu antibody and streptavidin-d2) was added to each well of the assay plate. The assay plate was incubated overnight and protected from light. Fluorescence was read on BMG (BMG LRBTECH).
The ratio of each well was calculated (ratio_665 nm/615 nm-ratio_background). The activity % was calculated as follows: C = (Ave_Ac−Ave_Ba)/(Ave_Dc_Ave_Bd) [formula] R data = (A−Ave_Ba−C*D)/(D−Ave_Bd)*(Ave_Dc−Ave_Bd) [formula] Activity % = R data/Ave_VC*100. [formula] • A: fluorescence intensity of the sample at 665 nm; • D: fluorescence intensity of the sample at 615 nm; • Ba: fluorescence intensity of the plate background at 665 nm; • Bd: fluorescence intensity of the plate background at 615 nm; • Dc: fluorescence intensity of HIS-Eu background at 615 nm; • Ac: fluorescence intensity of streptavidin-d2 background at 665 nm; • VC: DMSO treatment group.
SC150 was calculated using Graphpad 8.0 to fit the logarithm of activity% and compound concentration to a nonlinear regression (dose response-variable slope). Table 1: Activity of compounds promoting the binding of p53 Y220C mutant with DNA

[2H]C([2H])([2H])Oc1nc(C(=O)NS(C)(=O)=O)ccc1NCC#Cc1cc2c(N[C@@H]3CCN(C)C[C@@H]3F)cccn2c1CC(F)(F)F [Cpd-2, 5-((3-(8-(((3S,4R)-3-Fluoro-1-methylpiperidin-4-yl)amino)-3-(2,2,2-trifluoroethyl)indolizin-2-yl)prop-2-yn-1-yl)amino)-6-(methoxy-d3)-N-(methylsulfonyl)picolinamide]
SC150: 0.58 nM
